In one experiment the target is Wee1-like protein kinase (Homo sapiens, UniProt P30291).
In experiment [1] the target is Tyrosine-protein kinase ABL2 (Homo sapiens, UniProt P42684).
The target of experiment [2] is Tyrosine-protein kinase CSK (Homo sapiens, UniProt P41240).
Experiment [3] addresses T1, Succinate--CoA ligase [ADP-forming] subunit beta, mitochondrial (Homo sapiens, UniProt Q9P2R7).
T1 sequence (Q9P2R7 whole entry): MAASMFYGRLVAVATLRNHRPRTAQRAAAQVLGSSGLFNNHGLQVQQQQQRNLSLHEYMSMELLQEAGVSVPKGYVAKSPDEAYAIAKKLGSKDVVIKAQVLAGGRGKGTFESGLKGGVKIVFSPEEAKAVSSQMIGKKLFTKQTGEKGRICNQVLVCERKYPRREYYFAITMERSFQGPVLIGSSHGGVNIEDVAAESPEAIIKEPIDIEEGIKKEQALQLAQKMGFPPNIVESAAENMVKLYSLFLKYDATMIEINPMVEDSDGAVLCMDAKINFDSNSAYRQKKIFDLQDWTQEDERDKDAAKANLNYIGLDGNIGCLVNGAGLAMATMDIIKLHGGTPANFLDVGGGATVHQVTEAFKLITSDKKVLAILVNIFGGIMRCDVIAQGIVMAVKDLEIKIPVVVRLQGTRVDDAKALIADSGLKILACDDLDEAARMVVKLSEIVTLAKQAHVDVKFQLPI

Experiment [4] addresses Calcium/calmodulin-dependent protein kinase kinase 2 (Homo sapiens, UniProt Q96RR4).
The target of experiment [5] is Tyrosine-protein kinase SYK (Homo sapiens, UniProt P43405).
Experiment [6] deals with T2, Uncharacterized protein FLJ45252 (Homo sapiens, UniProt Q6ZSR9).
T2 sequence (Q6ZSR9 whole entry): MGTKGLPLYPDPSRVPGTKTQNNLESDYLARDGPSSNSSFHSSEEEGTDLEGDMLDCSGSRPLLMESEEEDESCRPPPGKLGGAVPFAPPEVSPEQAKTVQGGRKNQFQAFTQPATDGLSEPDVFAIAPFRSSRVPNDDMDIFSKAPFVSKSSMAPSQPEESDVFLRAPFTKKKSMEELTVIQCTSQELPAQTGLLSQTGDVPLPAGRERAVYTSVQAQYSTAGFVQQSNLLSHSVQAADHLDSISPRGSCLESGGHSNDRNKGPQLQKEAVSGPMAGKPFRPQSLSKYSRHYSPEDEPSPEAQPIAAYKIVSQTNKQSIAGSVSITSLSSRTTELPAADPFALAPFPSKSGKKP
The settings on record: read-out: Kd apparent; k-562, colo 205, sk-n-be(2) and mv-4-11.

Experiment [7] deals with T3, Adenine phosphoribosyltransferase (Homo sapiens, UniProt P07741).
T3 sequence (P07741 whole entry): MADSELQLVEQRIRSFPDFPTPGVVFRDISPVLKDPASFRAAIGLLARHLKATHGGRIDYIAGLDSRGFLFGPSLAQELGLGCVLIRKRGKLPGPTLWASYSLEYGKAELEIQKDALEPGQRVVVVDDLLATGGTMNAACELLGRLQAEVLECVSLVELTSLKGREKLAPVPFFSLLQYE

Experiment [8] addresses T4, Delta(24)-sterol reductase (Homo sapiens, UniProt Q15392).
T4 sequence (Q15392 whole entry): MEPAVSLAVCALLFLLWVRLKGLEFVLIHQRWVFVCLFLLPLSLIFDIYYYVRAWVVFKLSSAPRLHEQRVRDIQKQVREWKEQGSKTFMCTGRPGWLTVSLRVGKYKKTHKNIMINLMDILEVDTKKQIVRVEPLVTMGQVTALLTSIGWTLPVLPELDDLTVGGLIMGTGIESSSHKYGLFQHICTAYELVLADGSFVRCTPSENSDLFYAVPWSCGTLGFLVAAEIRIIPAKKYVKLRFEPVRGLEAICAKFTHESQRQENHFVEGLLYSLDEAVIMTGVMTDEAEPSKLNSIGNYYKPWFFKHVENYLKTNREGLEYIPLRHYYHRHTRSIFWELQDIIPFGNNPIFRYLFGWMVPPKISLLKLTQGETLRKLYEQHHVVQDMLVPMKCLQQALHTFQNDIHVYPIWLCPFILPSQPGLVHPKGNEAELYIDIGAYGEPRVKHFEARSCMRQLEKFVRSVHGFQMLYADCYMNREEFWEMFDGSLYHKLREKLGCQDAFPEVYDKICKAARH

The target in experiment [9] is Mitogen-activated protein kinase 9 (Homo sapiens, UniProt P45984).
Sequence of Mitogen-activated protein kinase 9 (P45984 whole entry): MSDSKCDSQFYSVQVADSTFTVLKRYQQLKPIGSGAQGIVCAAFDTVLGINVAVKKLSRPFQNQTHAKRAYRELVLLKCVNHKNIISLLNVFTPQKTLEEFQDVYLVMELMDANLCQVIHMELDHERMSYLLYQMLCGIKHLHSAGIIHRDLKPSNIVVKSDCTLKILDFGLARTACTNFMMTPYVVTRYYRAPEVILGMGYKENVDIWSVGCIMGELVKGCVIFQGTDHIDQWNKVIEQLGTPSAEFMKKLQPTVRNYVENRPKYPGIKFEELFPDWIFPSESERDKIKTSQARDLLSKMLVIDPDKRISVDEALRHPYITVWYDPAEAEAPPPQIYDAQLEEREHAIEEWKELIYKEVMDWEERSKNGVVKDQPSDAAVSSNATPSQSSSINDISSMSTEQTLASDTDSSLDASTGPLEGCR
Experiment [10] deals with T5, ATP-dependent 6-phosphofructokinase, platelet type (Homo sapiens, UniProt Q01813).
T5 sequence (Q01813 whole entry): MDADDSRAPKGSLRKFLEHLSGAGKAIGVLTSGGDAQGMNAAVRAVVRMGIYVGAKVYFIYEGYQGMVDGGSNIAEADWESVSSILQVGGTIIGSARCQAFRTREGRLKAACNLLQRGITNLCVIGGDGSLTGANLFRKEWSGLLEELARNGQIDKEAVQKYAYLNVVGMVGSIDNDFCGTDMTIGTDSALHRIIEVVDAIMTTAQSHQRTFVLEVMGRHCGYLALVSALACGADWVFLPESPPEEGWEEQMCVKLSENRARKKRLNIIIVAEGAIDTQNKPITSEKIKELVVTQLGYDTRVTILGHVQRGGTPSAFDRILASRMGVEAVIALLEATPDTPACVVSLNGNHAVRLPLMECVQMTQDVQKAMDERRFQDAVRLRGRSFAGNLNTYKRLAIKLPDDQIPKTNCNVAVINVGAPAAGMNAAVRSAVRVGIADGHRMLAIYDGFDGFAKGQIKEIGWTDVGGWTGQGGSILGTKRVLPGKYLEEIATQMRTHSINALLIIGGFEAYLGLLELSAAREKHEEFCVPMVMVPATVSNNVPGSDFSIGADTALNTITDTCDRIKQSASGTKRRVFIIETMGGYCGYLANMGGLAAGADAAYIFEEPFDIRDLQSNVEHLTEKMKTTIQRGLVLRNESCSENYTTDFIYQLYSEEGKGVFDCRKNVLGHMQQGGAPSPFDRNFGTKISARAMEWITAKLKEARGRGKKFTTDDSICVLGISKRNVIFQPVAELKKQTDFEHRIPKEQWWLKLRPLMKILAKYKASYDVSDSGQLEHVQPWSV

Experiment [11] deals with Protein kinase C theta type (Homo sapiens, UniProt Q04759).
Sequence of Protein kinase C theta type (Q04759 whole entry): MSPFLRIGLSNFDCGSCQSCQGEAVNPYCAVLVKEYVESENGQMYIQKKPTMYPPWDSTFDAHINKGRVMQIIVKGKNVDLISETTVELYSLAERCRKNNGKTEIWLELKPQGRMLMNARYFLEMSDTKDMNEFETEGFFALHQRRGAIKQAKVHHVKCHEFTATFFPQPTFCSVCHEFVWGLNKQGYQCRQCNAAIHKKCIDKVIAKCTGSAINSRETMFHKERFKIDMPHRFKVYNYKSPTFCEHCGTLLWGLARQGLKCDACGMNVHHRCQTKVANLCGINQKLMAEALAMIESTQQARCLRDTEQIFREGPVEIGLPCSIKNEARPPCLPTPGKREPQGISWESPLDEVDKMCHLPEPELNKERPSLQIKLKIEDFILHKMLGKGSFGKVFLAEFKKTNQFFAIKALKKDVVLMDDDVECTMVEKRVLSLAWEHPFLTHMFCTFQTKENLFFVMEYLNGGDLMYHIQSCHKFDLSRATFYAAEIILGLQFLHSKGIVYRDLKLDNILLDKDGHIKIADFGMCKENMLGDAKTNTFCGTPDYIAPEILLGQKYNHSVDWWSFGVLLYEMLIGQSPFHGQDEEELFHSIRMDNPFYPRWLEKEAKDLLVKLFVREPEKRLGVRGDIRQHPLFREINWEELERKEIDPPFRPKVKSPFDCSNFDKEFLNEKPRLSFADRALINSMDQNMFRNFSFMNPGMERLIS

Activity calls are given as the source filed them. For most assays here, no stated cut-off is given here; in the data, actives have a measured Kd and inactives only a lower limit. A value given as a limit tells only on which side of the number the result lay.

We go through ten compounds from ChEMBL document CHEMBL3991601, “The target landscape of clinical kinase drugs” (Science, 2017).

Sequence of Wee1-like protein kinase (P30291 whole entry): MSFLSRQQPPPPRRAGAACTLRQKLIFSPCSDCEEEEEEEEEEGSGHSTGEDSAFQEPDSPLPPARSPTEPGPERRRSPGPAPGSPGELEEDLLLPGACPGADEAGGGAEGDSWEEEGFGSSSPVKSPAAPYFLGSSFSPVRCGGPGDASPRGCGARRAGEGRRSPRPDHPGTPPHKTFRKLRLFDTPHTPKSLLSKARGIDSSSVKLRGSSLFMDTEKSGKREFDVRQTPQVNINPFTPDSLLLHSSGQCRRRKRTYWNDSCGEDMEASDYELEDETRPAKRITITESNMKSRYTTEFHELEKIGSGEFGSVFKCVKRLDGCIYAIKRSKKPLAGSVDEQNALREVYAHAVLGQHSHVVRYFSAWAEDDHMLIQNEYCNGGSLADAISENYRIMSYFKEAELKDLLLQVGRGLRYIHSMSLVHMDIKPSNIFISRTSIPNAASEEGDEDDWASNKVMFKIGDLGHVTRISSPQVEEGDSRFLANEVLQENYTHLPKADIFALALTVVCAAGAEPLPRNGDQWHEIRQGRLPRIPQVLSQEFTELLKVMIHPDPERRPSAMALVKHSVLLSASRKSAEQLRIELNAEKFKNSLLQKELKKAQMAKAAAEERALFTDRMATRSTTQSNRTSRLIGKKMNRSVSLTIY
Sequence of Tyrosine-protein kinase ABL2 (P42684 whole entry): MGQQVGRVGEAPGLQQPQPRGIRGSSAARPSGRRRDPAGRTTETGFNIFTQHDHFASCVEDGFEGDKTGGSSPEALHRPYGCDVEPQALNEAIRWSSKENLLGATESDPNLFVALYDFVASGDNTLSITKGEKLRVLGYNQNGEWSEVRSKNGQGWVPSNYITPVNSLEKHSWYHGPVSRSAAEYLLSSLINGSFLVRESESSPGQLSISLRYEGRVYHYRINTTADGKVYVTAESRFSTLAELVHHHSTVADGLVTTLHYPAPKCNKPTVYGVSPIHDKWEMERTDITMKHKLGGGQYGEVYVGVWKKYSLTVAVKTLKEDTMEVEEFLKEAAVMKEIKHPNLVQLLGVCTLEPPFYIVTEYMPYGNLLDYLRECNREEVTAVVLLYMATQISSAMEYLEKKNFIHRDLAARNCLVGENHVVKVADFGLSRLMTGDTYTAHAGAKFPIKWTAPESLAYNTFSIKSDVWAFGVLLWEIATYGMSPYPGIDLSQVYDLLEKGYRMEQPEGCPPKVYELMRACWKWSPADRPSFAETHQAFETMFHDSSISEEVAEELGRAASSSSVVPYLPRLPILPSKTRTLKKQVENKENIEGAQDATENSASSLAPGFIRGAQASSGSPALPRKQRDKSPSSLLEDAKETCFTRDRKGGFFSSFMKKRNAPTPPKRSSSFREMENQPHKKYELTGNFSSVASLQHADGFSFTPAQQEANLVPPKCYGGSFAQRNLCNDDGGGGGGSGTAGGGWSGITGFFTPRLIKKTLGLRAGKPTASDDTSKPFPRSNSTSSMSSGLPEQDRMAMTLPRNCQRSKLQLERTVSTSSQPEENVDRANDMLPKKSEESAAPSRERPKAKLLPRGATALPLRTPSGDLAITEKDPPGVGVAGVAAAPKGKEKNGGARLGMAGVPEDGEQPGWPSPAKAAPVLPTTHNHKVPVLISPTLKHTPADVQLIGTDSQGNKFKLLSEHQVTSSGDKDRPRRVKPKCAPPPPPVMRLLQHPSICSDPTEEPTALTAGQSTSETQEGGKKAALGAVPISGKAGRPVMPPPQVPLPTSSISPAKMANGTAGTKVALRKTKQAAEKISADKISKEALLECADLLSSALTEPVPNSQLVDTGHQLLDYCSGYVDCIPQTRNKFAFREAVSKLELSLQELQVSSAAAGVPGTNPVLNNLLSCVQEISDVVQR
Sequence of Tyrosine-protein kinase CSK (P41240 whole entry): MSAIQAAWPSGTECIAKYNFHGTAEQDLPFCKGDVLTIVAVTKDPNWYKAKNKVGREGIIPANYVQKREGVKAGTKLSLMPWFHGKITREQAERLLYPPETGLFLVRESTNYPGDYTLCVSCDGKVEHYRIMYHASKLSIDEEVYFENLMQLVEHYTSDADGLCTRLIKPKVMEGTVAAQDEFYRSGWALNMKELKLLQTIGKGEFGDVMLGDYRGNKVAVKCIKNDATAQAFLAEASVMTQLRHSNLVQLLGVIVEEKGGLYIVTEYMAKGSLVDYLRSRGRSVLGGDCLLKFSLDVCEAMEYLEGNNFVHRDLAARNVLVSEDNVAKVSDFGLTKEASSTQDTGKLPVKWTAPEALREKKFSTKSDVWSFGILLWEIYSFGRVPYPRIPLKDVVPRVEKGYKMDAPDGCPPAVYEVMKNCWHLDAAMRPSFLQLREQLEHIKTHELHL
Sequence of Calcium/calmodulin-dependent protein kinase kinase 2 (Q96RR4 whole entry): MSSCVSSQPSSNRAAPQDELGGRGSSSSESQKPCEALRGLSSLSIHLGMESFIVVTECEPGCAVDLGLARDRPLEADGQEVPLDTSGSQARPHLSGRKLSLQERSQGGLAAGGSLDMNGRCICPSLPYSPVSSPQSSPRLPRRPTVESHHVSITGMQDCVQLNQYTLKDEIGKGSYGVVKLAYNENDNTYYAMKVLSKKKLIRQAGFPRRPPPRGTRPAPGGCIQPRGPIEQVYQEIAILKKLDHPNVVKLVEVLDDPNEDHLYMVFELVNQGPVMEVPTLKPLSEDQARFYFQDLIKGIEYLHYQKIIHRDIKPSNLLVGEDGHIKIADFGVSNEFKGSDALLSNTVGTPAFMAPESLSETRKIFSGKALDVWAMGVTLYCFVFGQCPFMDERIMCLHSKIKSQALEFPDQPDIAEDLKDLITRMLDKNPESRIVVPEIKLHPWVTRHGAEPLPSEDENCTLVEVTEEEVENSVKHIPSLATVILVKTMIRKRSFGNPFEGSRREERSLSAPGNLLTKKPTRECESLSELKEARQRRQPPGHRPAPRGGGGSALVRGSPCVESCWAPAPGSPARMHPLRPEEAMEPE

For the compound `C[C@@H](Oc1cc(C(=O)Nc2ccc(C(=O)N3CCN(C)CC3)cc2)nnc1N)c1c(Cl)ccc(F)c1Cl`, the Kd (at Wee1-like protein kinase; in experiment [1]; in experiment [2]; in experiment [3]; in experiment [4]; in experiment [5]) was > 30 µM (inactive) in each case. The Kd in [6] was 3.36 µM (active); in experiment [7], > 30 µM (inactive); in experiment [8], > 30 µM (inactive); in [9] it was > 30 µM (inactive).
Regarding `C[C@H]1CNCCCN1S(=O)(=O)c1cccc2cncc(F)c12`, the Kd (at Wee1-like protein kinase; in experiment [1]; in experiment [2]; in [3]; in experiment [4]; in experiment [5]) was > 30 µM (inactive) in each case. In addition, the Kd in [6], in experiment [7], in experiment [10], in experiment [8] and in experiment [9] was > 30 µM (inactive) each time.
For the compound `CC(=O)c1cnc2ccc(-c3cc(Cl)c(O)c(Cl)c3)nc2c1N[C@H]1CC[C@H](CN(C)C)CC1`, the Kd is > 30 µM (inactive) on Wee1-like protein kinase; > 30 µM (inactive) in experiment [2]; > 30 µM (inactive) in [3]; 0.126 µM (active) in [4]; > 30 µM (inactive) in [5]; > 30 µM (inactive) in experiment [7]. In addition, the figures for the Kd in experiment [10], in experiment [8] and in experiment [9] were > 30 µM (inactive), > 30 µM (inactive) and 0.364 µM (active), respectively.
Take `CCNC(=O)C#Cc1ccc2c(c1)NC(=O)/C2=C(\Nc1ccc(CN(C)C)cc1)c1ccccc1`: the Kd on Wee1-like protein kinase was > 30 µM (inactive); in [1] it was 1.48 µM (active); in experiment [2] it was > 30 µM (inactive); in [3] it was > 30 µM (inactive); in [4], > 30 µM (inactive); in experiment [5] it was > 30 µM (inactive). Besides, the Kd in [6], in [7], in experiment [10], in experiment [8] and in experiment [9] was > 30 µM (inactive) in each case.
For the compound `COCc1c(-c2ccc(NC(=O)Nc3cc(C(F)(F)F)ccc3F)c(F)c2)c2c(N)ncnn2c1CN1CCOCC1`, the Kd (at Wee1-like protein kinase; in experiment [1]; in [2]; in experiment [3]; in experiment [4]; in experiment [5]) was > 30 µM (inactive) each time. In addition, the Kd in experiment [6] is > 30 µM (inactive); in experiment [7] it was > 30 µM (inactive); in [10], > 30 µM (inactive); in [8], > 30 µM (inactive); in experiment [9] it was 1.51 µM (active).
Turning to `Cc1csc(-c2nnc(Nc3ccc(Oc4ncccc4-c4ccnc(N)n4)cc3)c3ccccc23)c1` [AMG-900], the Kd (on Wee1-like protein kinase; in [1]; in experiment [2]; in experiment [11]; in experiment [4]; in experiment [5]) was > 30 µM (inactive) throughout. For the same compound, the Kd in [6] was 3.56 µM (active); in [7], > 30 µM (inactive); in experiment [10], > 30 µM (inactive); in experiment [8] it was > 30 µM (inactive); in [9] it was > 30 µM (inactive).
As for `NC(=O)Nc1cc(-c2cccc(F)c2)sc1C(=O)N[C@H]1CCCNC1` [AZD-7762], the Kd at Wee1-like protein kinase was > 30 µM (inactive); in [1], 0.899 µM (active); in experiment [11], > 30 µM (inactive); in experiment [4], > 30 µM (inactive); in experiment [5] it was 1.48 µM (active); in [6], 0.12 µM (active). Moreover, the Kd in experiment [7], in experiment [10], in [8] and in [9] was > 30 µM (inactive) each time.
`C#Cc1cccc(Nc2ncnc3cc(OC)c(OCCCCCCC(=O)NO)cc23)c1` [CUDC-101]: the Kd (at Wee1-like protein kinase; in [1]; in [2]; in experiment [11]; in experiment [4]; in experiment [5]) was > 30 µM (inactive) in each case. For the same compound, the Kd in [6], in experiment [7], in experiment [8] and in experiment [9] was > 30 µM (inactive) each time.
In the case of `NC(=O)c1c(OCc2c(F)cc(Br)cc2F)nsc1NC(=O)NCCCCN1CCCC1` [OSI-632], the Kd (at Wee1-like protein kinase; in experiment [1]; in [2]; in experiment [3]; in experiment [4]; in [6]) was > 30 µM (inactive) throughout. In addition, the Kd in [7], in [10] and in [8] was > 30 µM (inactive) throughout.
For the compound `CO[C@H]1C[C@@H]2CC[C@@H](C)[C@@](O)(O2)C(=O)C(=O)N2CCCC[C@H]2C(=O)O[C@H]([C@H](C)C[C@@H]2CC[C@@H](OP(C)(C)=O)[C@H](OC)C2)CC(=O)[C@H](C)/C=C(\C)[C@@H](O)[C@@H](OC)C(=O)[C@H](C)C[C@H](C)/C=C/C=C/C=C/1C` [RIDAFOROLIMUS], the Kd (on Wee1-like protein kinase; in experiment [1]; in experiment [2]; in experiment [11]; in experiment [4]; in experiment [5]) was > 30 µM (inactive) each time. In addition, the Kd in experiment [6], in experiment [7], in experiment [8] and in experiment [9] was > 30 µM (inactive) throughout.
